Source: ChEMBL document CHEMBL5154823, “Amphiphilic cyclic peptide [W4KR5]-Antibiotics combinations as broad-spectrum antimicrobial agents” (Eur J Med Chem, 2022)
Activity calls are given as the source filed them. The rule behind the calls is not given here. Where a SMILES comes first, the peptide text is derived from it.

Key:
[1] = system: Staphylococcus aureus; experiment: Antibacterial activity against Staphylococcus aureus ATCC BAA -1556 assessed as levofloxacin MIC incubated for 24 hrs by microbroth dilution assay; assay type: functional
[2] = system: Escherichia coli; experiment: Bactericidal activity against Escherichia coli ATCC BAA 2452 assessed as reduction in bacterial growth at MIC measured after 8 hrs by Time kill assay; assay type: functional, organism-based
[3] = system: Staphylococcus aureus; experiment: Synergistic antibacterial activity against methicillin resistant Staphylococcus aureus ATCC BAA -1556 assessed as fractional inhibitory concentration index incubated for 24 hrs in presence of clindamycin by checkerboard assay; assay type: functional
[4] = system: Staphylococcus aureus; experiment: Synergistic antibacterial activity against methicillin resistant Staphylococcus aureus ATCC BAA -1556 assessed as fractional inhibitory concentration index incubated for 24 hrs in presence of vancomycin by checkerboard assay; assay type: functional
[5] = system: Pseudomonas aeruginosa; experiment: Synergistic antibacterial activity against Pseudomonas aeruginosa ATCC 27883 assessed as fractional inhibitory concentration index incubated for 24 hrs in presence of tobramycin by checkerboard assay; assay type: functional
[6] = system: Pseudomonas aeruginosa; experiment: Synergistic antibacterial activity against Pseudomonas aeruginosa ATCC 27883 assessed as fractional inhibitory concentration index incubated for 24 hrs in presence of polymyxin B by checkerboard assay; assay type: functional
[7] = system: Pseudomonas aeruginosa; experiment: Synergistic antibacterial activity against Pseudomonas aeruginosa ATCC 27883 assessed as fractional inhibitory concentration index incubated for 24 hrs in presence of vancomycin by checkerboard assay; assay type: functional
[8] = system: Escherichia coli; experiment: Synergistic antibacterial activity against Escherichia coli ATCC 25922 assessed as fractional inhibitory concentration index incubated for 24 hrs in presence of ciprofloxacin by checkerboard assay; assay type: functional
[9] = system: Pseudomonas aeruginosa; experiment: Antibacterial activity against Pseudomonas aeruginosa ATCC 27883 assessed as ciprofloxacin MIC incubated for 24 hrs by microbroth dilution assay; assay type: functional

## N=C(N)NCCC[C@@H]1NC(=O)[C@H](CCCNC(=N)N)NC(=O)[C@H](CCCNC(=N)N)NC(=O)[C@H](CCCNC(=N)N)NC(=O)[C@H](Cc2c[nH]c3ccccc23)NC(=O)[C@H](Cc2c[nH]c3ccccc23)NC(=O)[C@H](Cc2c[nH]c3ccccc23)NC(=O)[C@H](Cc2c[nH]c3ccccc23)NC(=O)[C@H](CCCCN)NC(=O)[C@H](CCCNC(=N)N)NC1=O (cyclo(KWWWWRRRRR))
[1]
  MIC: 1 µg/mL
[2]
  Activity: Active
[3]
  fractional inhibitory concentration index (FICI): 0.498
[4]
  fractional inhibitory concentration index (FICI): 0.5
[5]
  fractional inhibitory concentration index (FICI): 0.5
[6]
  fractional inhibitory concentration index (FICI): 0.375
[7]
  fractional inhibitory concentration index (FICI): 0.531
[8]
  fractional inhibitory concentration index (FICI): 0.625
[9]
  MIC: 0.125 µg/mL
